Experimental data taken from US20230123497A1, “NOVEL ANTIBACTERIAL HYDROGELS” (NewSouth Innovations Pty Limited, priority 2020, published 2023).
Where “and” joins values, the source holds several entries; their conditions need not be identical. Equal entries are not always repeated.

Key:
[1] = test system: HEK 293T cells; assay: Cytotoxicity, Alamar Blue colorimetric assay; format: cell-based
Experimental: Cytotoxicity measurements were performed using an Alamar Blue colorimetric assay. Each experiment was repeated at least three times. Cells were passaged using standard cell culture procedures. Cells were detached with trypsin and centrifuged (1000 rpm for 3 min). The supernatant was removed and the cells re-suspended in Dulbecco's Modified Eagle Medium (DMEM) at a concentration of 100,000 cells per mL. Cells were seeded at a concentration of 6,000 cells per well. For cytotoxicity measurements, […] of hydrogel made from short-peptide 4 (at 1% w/v and 2% w/v) and short peptides 11, 12, 13, and 16 (at 0.3, 0.6, and 1.0% w/v) were added in triplicate to a 96-well plate and allowed to set overnight. Surrounding wells were supplemented with water to ensure hydration of the gels. Gels were then incubated for 24 h with DMEM. Cells were seeded atop the hydrogels and incubated for 24 hours, before […] of Alamar Blue was added to the wells, followed by further incubation for 4 h. Control wells included cell-free gels, no hydrogels and a negative control of 15% (v/v) DMSO. The absorbances at 570 nm and 596 nm were recorded using a BioRad Benchmark plate reader.

[2] = NO release from hydrogel 4 quantified with Griess reagent; format: physicochemical
Experimental: NO release from hydrogel 4 was quantified using the Griess reagent, which is an indirect method that measures collected nitrite as the primary degradation product of NO. Nitrobenzene-appended anthranilamide-based hydrogel 4 was pre-formed in an aluminium covered vial at 1% w/v (1 mL). Milli-Q water (1 mL) was carefully cast on top of the hydrogel, which was subsequently exposed to UV or blue light irradiation. At certain time points (0, 5, 15, 30, 60, and 120 min), the entire upper solutions were carefully removed and allowed to react with Griess reagent, according to the indication of the NO assay kit (Promega), to provide an azo compound that is responsible for providing the colorimetric assay. Subsequently, 1 mL of fresh Milli-Q water was immediately added to the top of hydrogel 4 for continuing the release.
Due to the strong absorbance of hydrogel 4 in the UV range, NO release was triggered by using a UV lamp (λ=356 nm). The same volume of Milli-Q water was placed on top of hydrogel 4, which was irradiated with UV light for 2 hours. The entire solution, on top of the hydrogel, was removed and replaced with the same amount of Milli-Q water periodically. The resulting solutions were reacted with Griess reagent. Any NO generated during the experiment would react with oxygen to generate nitrite ion (NO2^−). The subsequent reaction between NO2^− with Griess reagent, which contains sulfanilamide and N-(1-naphthyl)ethylenediamine (NED), will form a bright pink azo-dye compound that can be quantified using UV-Vis spectroscopy, as shown in the below scheme: […]

[3] = Hydrogel formation, vial inversion test (critical gel concentration); format: physicochemical; details: solvent switch
[4] = test system: S. aureus 38; assay: Antibacterial activity of cationic hydrogels, viable count method; format: cell-based, Staphylococcus aureus; details: hydrogel at 1% w/v in contact with S. aureus, compared to control
Experimental: (§1) The antibacterial activity of the anthranilamide-based cationic hydrogels 11-13 and 15-19 was investigated in vitro against S. aureus. The antibacterial activity of anthranilamide-based cationic hydrogel 11 was also investigated in vitro against E. coli.
(§2) First, a single colony of S. aureus 38 or E. coli K12 was grown in Luria-Bertani (LB) broth medium at 37° C. overnight. The resulting bacteria were harvested, via centrifugation, to obtain a bacteria pellet which was re-suspended in the same volume of LB medium, twice. The optical density (OD) value of the resulting culture was adjusted to 0.1 at 600 nm in LB (10^8 cfu·mL^−1). This bacteria solution was then further adjusted to 3×10^4 cfu mL^−1. (CFU or cfu=colony-forming unit). Bacteria solutions (1 mL), which contain either 10^8 CFUs/mL or 3×10^4 CFUs/mL, were gently added to hydrogel 11 at 1% w/v with total volume of 1 mL. Anthranilamide-based cationic hydrogels 11-13 and 15-19 (1 mL) were prepared at 1% w/v in glass vials as described above. On top of these pre-formed hydrogels, 1 mL of bacteria solution was carefully cast. […] As a negative control, a bacterial solution in the absence of hydrogel was used. After being incubated at 37° C. for 18 hours, 100 μL of bacteria solution in each vial was taken and subjected to serial dilution using phosphate buffer solution (PBS). 20 μL of each dilution were carefully transferred into nutrient agar plates and incubated for another 18 hours. The following day, bacterial growth inhibition was quantified using the viable count method. The experiment was performed twice in triplicate and multiple sample comparison was performed using one-way ANOVA at p<0.05.

[5] = test system: E. coli K12; assay: Antibacterial activity of cationic hydrogel 11, viable count method; format: cell-based, Escherichia coli; details: hydrogel 11 at 1% w/v in contact with E. coli
Experimental: as §1
as §2, with “After being incubated at 37° C. for 18 hours, 100 μL of bacteria solution in each vial was taken and subjected to serial dilution using phosphate buffer solution (PBS). 20 μL of each dilution were carefully transferred into nutrient agar plates and incubated for another 18 hours.” left out, “The experiment was performed twice in triplicate and multiple sample comparison was performed using one-way ANOVA at p<0.05.” left out

[6] = Release of cationic short peptide from hydrogel (UV-Vis); format: physicochemical; details: hydrogel 1% w/v, PBS, 37° C.
Experimental: Hydrogel 11 was made at 1% w/v with a final volume of 1 mL. The resulting hydrogel was left to stand overnight at room temperature. Phosphate buffer solution (PBS, 1 mL) was added gently from the side wall to avoid physical fractures. Subsequently, the vial was incubated at 37° C., where 1 mL of PBS was sampled at each time point and replaced with fresh PBS. Samples were subjected to 10× dilution before analysis using UV-Vis spectroscopy. This experiment was performed in triplicate.

| Time (gelation time) ([3]; DMSO 5 % v/v) | Time (gelation time) ([3]; MeOH 5 % v/v) | peptide released from hydrogel ([6]; 24 hours) | total peptide released ([6]; over 9 days) [%] | SMILES | cell viability ([1]; hydrogel 4 at 1% w/v, compared to the control) | cell viability ([1]; hydrogel 4 at 2% w/v) | NO detected ([2]; hydrogel 1% w/v, UV light (λ=356 nm), 5 minutes) [µM] | NO generated ([2]; hydrogel 1% w/v, UV light (λ=356 nm), 30 minutes) [µM] | NO recovered ([2]; hydrogel 1% w/v, UV light, 2 hours) [%] | irradiation time required to generate NO concentration that can kill E. coli ([2]; hydrogel 1% w/v, blue light) [h] | total NO recovered ([2]; hydrogel 1% w/v, blue light, 2 hours) [%] | NO release in the absence of triggers ([2]; no UV or blue light) | bacterial reduction [4] [Log10] | bacteria reduction [5] |
| --- | --- | --- | --- | --- | --- | --- | --- | --- | --- | --- | --- | --- | --- | --- |
| Immed. | Immed. | – | – | O=C(Nc1ccccc1C(=O)N[C@@H](Cc1ccccc1)C(=O)N[C@@H](Cc1ccccc1)C(=O)O)c1ccc([N+](=O)[O-])c(C(F)(F)F)c1 [Compound 4, (2-(4-Nitro-3-(trifluoromethyl)benzamido)benzoyl)-L-phenylalanyl-L-phenylalanine] | more than 90% | A similar result was observed | 1 | 7 | 61 | 1 | 23 | does not leach NO | – | – |
| – | – | 0.15 mg/mL and 221 μM | ~14 | NCCCNC(=O)[C@H](Cc1ccccc1)NC(=O)c1ccccc1NC(=O)c1ccc2ccccc2c1 [Compound 11] | – | – | – | – | – | – | – | – | 9.0 | 6.4 Log10 and 6.2 Log10 |
